In the test the test system is M. catarrhalis A894. Briefly: Minimal inhibitory concentration (MIC), microdilution method in cation-adjusted Mueller-Hinton Broth (CLSI M7-A7). The test is classed as cell-based. The following applies: Moraxella catarrhalis, strain A894. As for the experimental part: Minimal inhibitory concentrations (MICs; mg/1) were determined in cation-adjusted Mueller-Hinton Broth by a microdilution method following the description given in “Methods for Dilution Antimicrobial Susceptibility Tests for Bacteria that Grow Aerobically”, Approved standard, 7th ed., Clinical and Laboratory Standards Institute (CLSI) Document M7-A7, Wayne, Pa., USA, 2006.
(In broth dilution the organism is exposed to a series of concentrations in liquid medium.)
Take `O=C1CSc2ccc(N3C[C@H](CCN(CCCO)CC4Cn5c(=O)ccc6ccc(F)c4c65)OC3=O)cc2N1` (mixture of isomers) [Example 90, (RS)-9-fluoro-1-[((3-hydroxy-propyl)-{2-[(S)-2-oxo-3-(3-oxo-3,4-dihydro-2H-benzo[1,4]thiazin-6-yl)-oxazolidin-5-yl]-ethyl}-amino)-methyl]-1,2-dihydro-pyrrolo[3,2,1-ij]quinolin-4-one]: the MIC (usually the smallest concentration in the dilution series that meets the test's criterion for growth inhibition) was at most 0.031 µg/mL.
In the case of `O=C1CSc2ccc(N3C[C@H](CCN(CCO)CC4Cn5c(=O)ccc6ccc(F)c4c65)OC3=O)cc2N1` (mixture of isomers) [Example 91, (RS)-9-fluoro-1-[((2-hydroxy-ethyl)-{2-[(S)-2-oxo-3-(3-oxo-3,4-dihydro-2H-benzo[1,4]thiazin-6-yl)-oxazolidin-5-yl]-ethyl}-amino)-methyl]-1,2-dihydro-pyrrolo[3,2,1-ij]quinolin-4-one] it was at most 0.031 µg/mL; in that of `O=C1CSc2ccc(N3C[C@@H](CCCN(CCCO)C4Cn5c(=O)ccc6ccc(F)c4c65)OC3=O)cc2N1` (mixture of isomers) [Example 92, (RS)-9-fluoro-1-((3-hydroxy-propyl)-{3-[(R)-2-oxo-3-(3-oxo-3,4-dihydro-2H-benzo[1,4]thiazin-6-yl)-oxazolidin-5-yl]-propyl}-amino)-1,2-dihydro-pyrrolo[3,2,1-ij]quinolin-4-one], at most 0.031 µg/mL; in that of `O=C1CSc2ccc(N3C[C@@H](CCCN(CCO)C4Cn5c(=O)ccc6ccc(F)c4c65)OC3=O)cc2N1` (mixture of isomers) [Example 93, (RS)-9-fluoro-1-((2-hydroxy-ethyl)-{3-[(R)-2-oxo-3-(3-oxo-3,4-dihydro-2H-benzo[1,4]thiazin-6-yl)-oxazolidin-5-yl]-propyl}-amino)-1,2-dihydro-pyrrolo[3,2,1-ij]quinolin-4-one], at most 0.031 µg/mL.
Take `O=C1CSc2ccc(N3C[C@@H](CCCNC4Cn5c(=O)ccc6ncc(F)c4c65)OC3=O)cc2N1` (mixture of isomers) [Example 94, (RS)-3-fluoro-4-{3-[(R)-2-oxo-3-(3-oxo-3,4-dihydro-2H-benzo[1,4]thiazin-6-yl)-oxazolidin-5-yl]-propylamino}-4,5-dihydro-pyrrolo[3,2,1-de][1,5]naphthyridin-7-one]: the MIC is at most 0.031 µg/mL.
In the case of `O=C1COc2ccc(N3C[C@@H](CCCNC4Cn5c(=O)ccc6ncc(F)c4c65)OC3=O)cc2N1` (mixture of isomers) [Example 95, (RS)-3-fluoro-4-{3-[(R)-2-oxo-3-(3-oxo-3,4-dihydro-2H-benzo[1,4]oxazin-6-yl)-oxazolidin-5-yl]-propylamino}-4,5-dihydro-pyrrolo[3,2,1-de][1,5]naphthyridin-7-one] it was at most 0.031 µg/mL.
The molecule `O=C1CSc2ccc(N3C[C@H](CCCNC4Cn5c(=O)ccc6ncc(F)c4c65)OC3=O)cc2N1` (mixture of isomers) [Example 96, (RS)-3-fluoro-4-{3-[(S)-2-oxo-3-(3-oxo-3,4-dihydro-2H-benzo[1,4]thiazin-6-yl)-oxazolidin-5-yl]-propylamino}-4,5-dihydro-pyrrolo[3,2,1-de][1,5]naphthyridin-7-one] registered an MIC of at most 0.031 µg/mL.
In the case of `O=C1COc2ccc(N3C[C@H](CCCNC4Cn5c(=O)ccc6ncc(F)c4c65)OC3=O)cc2N1` (mixture of isomers) [Example 97, (RS)-3-fluoro-4-{3-[(S)-2-oxo-3-(3-oxo-3,4-dihydro-2H-benzo[1,4]oxazin-6-yl)-oxazolidin-5-yl]-propylamino}-4,5-dihydro-pyrrolo[3,2,1-de][1,5]naphthyridin-7-one] it was at most 0.031 µg/mL; in that of `O=C1COc2ccc(N3C[C@@H](CNCC4Cn5c(=O)ccc6ncc(F)c4c65)OC3=O)cc2N1` (mixture of isomers) [Example 98, (RS)-3-fluoro-4-({[(R)-2-oxo-3-(3-oxo-3,4-dihydro-2H-benzo[1,4]oxazin-6-yl)-oxazolidin-5-ylmethyl]-amino}-methyl)-4,5-dihydro-pyrrolo[3,2,1-de][1,5]naphthyridin-7-one], 0.25 µg/mL; in that of `O=C1CSc2ccc(N3C[C@H](CCNCC4Cn5c(=O)ccc6ncc(F)c4c65)OC3=O)cc2N1` (mixture of isomers) [Example 99, (RS)-3-fluoro-4-({2-[(S)-2-oxo-3-(3-oxo-3,4-dihydro-2H-benzo[1,4]thiazin-6-yl)-oxazolidin-5-yl]-ethylamino}-methyl)-4,5-dihydro-pyrrolo[3,2,1-de][1,5]naphthyridin-7-one], at most 0.031 µg/mL.
The same measure for `O=C1CSc2ccc(N3C[C@@H](CNCC4Cn5c(=O)ccc6ncc(F)c4c65)OC3=O)cc2N1` (mixture of isomers) [Example 100, (RS)-3-fluoro-4-({[(R)-2-oxo-3-(3-oxo-3,4-dihydro-2H-benzo[1,4]thiazin-6-yl)-oxazolidin-5-ylmethyl]-amino}-methyl)-4,5-dihydro-pyrrolo[3,2,1-de][1,5]naphthyridin-7-one]: 0.031 µg/mL; for `O=C1CSc2ccc(N3C[C@H](CNCC4Cn5c(=O)ccc6ncc(F)c4c65)OC3=O)cc2N1` (mixture of isomers) [Example 101, (RS)-3-fluoro-4-({[(S)-2-oxo-3-(3-oxo-3,4-dihydro-2H-benzo[1,4]thiazin-6-yl)-oxazolidin-5-ylmethyl]-amino}-methyl)-4,5-dihydro-pyrrolo[3,2,1-de][1,5]naphthyridin-7-one]: at most 0.031 µg/mL; for `O=C1COc2ccc(N3C[C@H](CCNCC4Cn5c(=O)ccc6ncc(F)c4c65)OC3=O)cc2N1` (mixture of isomers) [Example 102, (RS)-3-fluoro-4-({2-[(S)-2-oxo-3-(3-oxo-3,4-dihydro-2H-benzo[1,4]oxazin-6-yl)-oxazolidin-5-yl]-ethylamino}-methyl)-4,5-dihydro-pyrrolo[3,2,1-de][1,5]naphthyridin-7-one]: at most 0.031 µg/mL.
The same measure for `O=C1COc2ccc(N3C[C@@H](CCNCC4Cn5c(=O)ccc6ncc(F)c4c65)OC3=O)cc2N1` (mixture of isomers) [Example 103, (RS)-3-fluoro-4-({2-[(R)-2-oxo-3-(3-oxo-3,4-dihydro-2H-benzo[1,4]oxazin-6-yl)-oxazolidin-5-yl]-ethylamino}-methyl)-4,5-dihydro-pyrrolo[3,2,1-de][1,5]naphthyridin-7-one]: at most 0.031 µg/mL; for `O=C1CSc2ccc(N3C[C@H](CNCC4Cn5c(=O)cnc6cccc4c65)OC3=O)cc2N1` (mixture of isomers) [Example 106, (RS)-6-({[(S)-2-oxo-3-(3-oxo-3,4-dihydro-2H-benzo[1,4]thiazin-6-yl)-oxazolidin-5-ylmethyl]-amino}-methyl)-5,6-dihydro-pyrrolo[1,2,3-de]quinoxalin-3-one]: at most 0.031 µg/mL.
In turn, `O=C1O[C@@H](CCNC2Cn3c(=O)ccc4ccc(F)c2c43)CN1c1ccc2c(c1)OCCO2` (mixture of isomers) [Example 107, (RS)-1-{2-[(S)-3-(2,3-dihydro-benzo[1,4]dioxin-6-yl)-2-oxo-oxazolidin-5-yl]-ethylamino}-9-fluoro-1,2-dihydro-pyrrolo[3,2,1-ij]quinolin-4-one] came in with an MIC of 8 µg/mL.
In the case of `O=C1CSc2ccc(N3C[C@H]([C@H](O)CC(=O)N[C@@H]4Cn5c(=O)ccc6ccc(F)c4c65)OC3=O)cc2N1` (mixture of isomers) [Example 108, (RS)—N—((S)-9-fluoro-4-oxo-1,2-dihydro-4H-pyrrolo[3,2,1-ij]quinolin-1-yl)-3-hydroxy-3-[(RS)-2-oxo-3-(3-oxo-3,4-dihydro-2H-benzo[1,4]thiazin-6-yl)-oxazolidin-5-yl]-propionamide] it was at most 0.031 µg/mL; in that of `O=C1CSc2ccc(N3C[C@@H](CNCC4Cn5c(=O)cnc6cccc4c65)OC3=O)cc2N1` (mixture of isomers) [Example 110, (RS)-6-({[(R)-2-oxo-3-(3-oxo-3,4-dihydro-2H-benzo[1,4]thiazin-6-yl)-oxazolidin-5-ylmethyl]-amino}-methyl)-5,6-dihydro-pyrrolo[1,2,3-de]quinoxalin-3-one], at most 0.031 µg/mL; in that of `O=C1CSc2ccc(N3C[C@@H](CCCNC4Cn5c(=O)cnc6cccc4c65)OC3=O)nc2N1` (mixture of isomers) [Example 115, (RS)-6-{3-[(R)-2-oxo-3-(3-oxo-3,4-dihydro-2H-pyrido[3,2-b][1,4]thiazin-6-yl)-oxazolidin-5-yl]-propylamino}-5,6-dihydro-pyrrolo[1,2,3-de]quinoxalin-3-one], at most 0.031 µg/mL.
In the case of `O=C1CSc2ccc(N3C[C@@H](CCCNC4Cn5c(=O)ccc6ccc(Br)c4c65)OC3=O)cc2N1` (mixture of isomers) [Example 116, (RS)-9-bromo-1-{3-[(R)-2-oxo-3-(3-oxo-3,4-dihydro-2H-benzo[1,4]thiazin-6-yl)-oxazolidin-5-yl]-propylamino}-1,2-dihydro-pyrrolo[3,2,1-ij]quinolin-4-one] it was at most 0.031 µg/mL; in that of `N#Cc1ccc2ccc(=O)n3c2c1C(NCCC[C@@H]1CN(c2ccc4c(c2)NC(=O)CS4)C(=O)O1)C3` (mixture of isomers) [Example 117, (RS)-4-oxo-1-{3-[(R)-2-oxo-3-(3-oxo-3,4-dihydro-2H-benzo[1,4]thiazin-6-yl)-oxazolidin-5-yl]-propylamino}-1,2-dihydro-4H-pyrrolo[3,2,1-ij]quinoline-9-carbonitrile], at most 0.031 µg/mL; in that of `N#Cc1ccc2ccc(=O)n3c2c1C(NCCC[C@@H]1CN(c2ccc4c(n2)NC(=O)CS4)C(=O)O1)C3` (mixture of isomers) [Example 118, (RS)-4-oxo-1-{3-[(R)-2-oxo-3-(3-oxo-3,4-dihydro-2H-pyrido[3,2-b][1,4]thiazin-6-yl)-oxazolidin-5-yl]-propylamino}-1,2-dihydro-4H-pyrrolo[3,2,1-ij]quinoline-9-carbonitrile], at most 0.031 µg/mL.
Take `O=C1COc2ccc(N3C[C@H](CCCNC4Cn5c(=O)ccc6ccc(F)c4c65)OC3=O)nc2N1` (mixture of isomers) [Example 124, (RS)-9-fluoro-1-{3-[(S)-2-oxo-3-(3-oxo-3,4-dihydro-2H-pyrido[3,2-b][1,4]oxazin-6-yl)-oxazolidin-5-yl]-propylamino}-1,2-dihydro-pyrrolo[3,2,1-ij]quinolin-4-one]: the minimum inhibitory concentration (MIC) was at most 0.031 µg/mL.

For the origin of these results see US9822114B2, “Tricyclic oxazolidinone antibiotic compounds” (Idorsia Pharmaceuticals Ltd, priority 2008, dated 2017).
